# Measurements as given in patent US20120101098A1, “3,28-DISUBSTITUTED BETULINIC ACID DERIVATIVES AS ANTI-HIV AGENTS” (priority 2009, published 2012).
# Where two headings read alike, the source gives them in different places.
# Key:
# HIV-1IIIB = HIV-1IIIB replication inhibition assay in MT-2 lymphocytes (p24 antigen ELISA); assay type: cell-based; conditions: HIV-1IIIB infected MT-2 cell lines, concentration that inhibits HIV-1IIIB replication by 50%, NS: no suppression at concentrations below the CC50
# Experimental: (§1) HIV-1IIIB Replication Inhibition Assay in MT-2 Lymphocytes. The evaluation of HIV-1 inhibition was carried out as follows. […] Control wells containing virus and cells only (no drug) and cells only (no virus or drug) were also prepared. A second identical set of samples were added to cells under the same conditions without virus (mock infection) for cytotoxicity determinations (CC50 defined below). […] On day 4 PI, the assay was terminated and culture supernatants were harvested for p24 antigen ELISA analysis. The compound cytotoxicity was determined by XTT using the mock-infected sample wells.
# HIV-1 = assay: Example 2 anti-HIV bioassay of C-28 ethylene glycol bevirimat analogs; assay type: cell-based; conditions: Example 2 compounds (Scheme B)
# [1] = Protein binding affinity (stated in words, Example 2); assay type: in vitro ADME; conditions: Example 2 compounds (Scheme B)
# [2] = Solubility (stated in words)
# [3] = Example 2 bioassay cytotoxicity (CC50); conditions: Example 2 compounds (Scheme B)
# mock-infected MT-2 cell [4] = assay: Cytotoxicity in mock-infected MT-2 cells (XTT); conditions: concentration that inhibits mock-infected MT-2 cell growth by 50%
# Experimental: as §1
# in vitro [5] = assay: in vitro
# mock-infected MT-2 cell [6] = test system: mock-infected MT-2 cell
# Experimental: as §1
# [7] = human, microsomes
# [8] = In vitro metabolic stability in pooled human liver microsomes; conditions: 3 μM, 0.2 mg/mL human liver microsome, NADPH
# in vitro [9] = conditions: human, mock-infected MT-2 cells
# Experimental: as §1
# HIV-1NL4-3 = HIV-1NL4-3 replication inhibition assay in MT-4 lymphocytes (p24 antigen ELISA); assay type: cell-based; conditions: HIV-1NL4-3 infected MT-4 cell lines; concentration that inhibits HIV-1NL4-3 replication by 50%
# From the text: HIV-1NL4-3 Replication Inhibition Assay in MT-4 Lymphocytes. A previously described HIV-1 infectivity assay was used.^28,33 A 96-well microtiter plate was used to set up the HIV-1NL4-3 replication screening assay. NL4-3 variants at a multiplicity of infection (MOI) of 0.01 were used to infect MT4 cells. Culture supernatants were collected on day 4 post-infection for the p24 antigen capture using an ELISA kit from ZeptoMetrix Corporation (Buffalo, N.Y.).
# mock-infected MT-4 cell = assay: Cytotoxicity in mock-infected MT-4 cells; assay type: cell-based; conditions: concentration that inhibits mock-infected MT-4 cell growth by 50%; read-out: CC50
# [10] = Example 2 compounds (Scheme B), C-28 ethylene glycol side chains on bevirimat
# [11] = Human immunodeficiency virus 1, MT2
Compound,EC50 (HIV-1IIIB) [µM],EC50 (HIV-1) [µM],protein binding affinity (in words) [1],solubility (in words) ([2]; Example 1 compounds),"solubility (in words) [2, 10]",CC50 [3] [µM],CC50 (mock-infected MT-2 cell [4]) [µM],EC50 (HIV-1IIIB; [11]) [µM],melting point [°C],further results
"C=C(COCCN1CCOCC1)[C@@H]1CC[C@]2(C(=O)NCCCCCCCC(=O)O)CC[C@]3(C)[C@H](CC[C@@H]4[C@@]5(C)CC[C@H](O)C(C)(C)[C@@H]5CC[C@]43C)[C@@H]12 [Compound 20, N-[3β-Hydroxy-30-(2′-morpholinoethoxy)-lup-20(29)-en-28-oyl]-8-aminooctanoic acid]",1.8,0.17,decreased protein binding affinity,increase in the derivative's solubility,increased solubility,12.4,24.8,–,–,–
"C=C(C)[C@@H]1CC[C@]2(C(=O)O)CC[C@]3(C)[C@H](CC[C@@H]4[C@@]5(C)CC[C@H](OC(=O)CC(C)(C)C(=O)O)C(C)(C)[C@@H]5CC[C@]43C)[C@@H]12 [Compound 2, bevirimat, reference compound]",–,–,–,–,–,–,–,–,–,EC50 (HIV-1; Human immunodeficiency virus 1): 0.063 µM; CC50 (in vitro [5]): 16.3 µM
"C=C(C)[C@@H]1CC[C@]2(C(=O)NCCCCCCCC(=O)O)CC[C@]3(C)[C@H](CC[C@@H]4[C@@]5(C)CC[C@H](O)C(C)(C)[C@@H]5CC[C@]43C)[C@@H]12 [Compound 23, N-[3β-Hydroxy-lup-20(29)-en-28-oyl]-8-aminooctanoic acid]",3.3,–,–,–,–,–,–,–,–,"CC50 (mock-infected MT-2 cell [6]): 33.4 µM; half life (t1/2, time to lose 50% of parent) [7]: around 35 min"
"C=C(C)[C@@H]1CC[C@]2(C(=O)N3CCC(CCCC(=O)O)CC3)CC[C@]3(C)[C@H](CC[C@@H]4[C@@]5(C)CC[C@H](O)C(C)(C)[C@@H]5CC[C@]43C)[C@@H]12 [Compound 38, N-[3β-Hydroxy-lup-20(29)-en-28-oyl]-4-piperidine butyric acid]",–,–,–,–,–,–,41,21.7,145 to 146,Persentage of Remaining Parent Compounds (X ± SD) % ([8]; incubation time 0 min): 100.0%; Persentage of Remaining Parent Compounds (X ± SD) % ([8]; incubation time 5 min): 101.7 ± 4.7%; Persentage of Remaining Parent Compounds (X ± SD) % ([8]; incubation time 15 min): 97.6 ± 6.2%; Persentage of Remaining Parent Compounds (X ± SD) % ([8]; incubation time 30 min): 81.4 ± 8.6%; Persentage of Remaining Parent Compounds (X ± SD) % ([8]; incubation time 60 min): 62.7 ± 4.3%; Persentage of Remaining Parent Compounds (X ± SD) % ([8]; incubation time 120 min): 53.8 ± 3.8%
"C=C(CBr)[C@@H]1CC[C@]2(C(=O)NC(CC(C)C)C(=O)O)CC[C@]3(C)[C@H](CC[C@@H]4[C@@]5(C)CC[C@H](OC(=O)CC(C)(C)C(=O)O)C(C)(C)[C@@H]5CC[C@]43C)[C@@H]12 (stereo partly drawn) [Compound 30, N-[3β-O-(3′,3′-Dimethylsuccinyl)-30-bromo-lup-20(29)-en-28-oyl]-leucine]",–,–,–,–,–,–,–,0.011,105 to 107,CC50 at 4 day (in vitro [9]): 33.2 µM
C=C(COCCN1CCOCC1)[C@@H]1CC[C@]2(C(=O)NCCCCCCCC(=O)NC)CC[C@]3(C)[C@H](CC[C@@H]4[C@@]5(C)CC[C@H](O)C(C)(C)[C@@H]5CC[C@]43C)[C@@H]12 [Compound 21],0.09,0.046,decreased protein binding affinity,good solubility,increased solubility,12,22.3,–,–,EC50 (HIV-1NL4-3): 0.09 µM; CC50 (mock-infected MT-4 cell): > 10 µM
